Assay results reported in patent EP4810494A1, “HPK1 DEGRADATION AGENT AND USE THEREOF IN FIELD OF MEDICINE” (Haisco Pharmaceutical Group Co., Ltd., priority 2023, dated 2025).
Structures can show the parent of a compound that is named as a salt.

Assays:
[1] = target: T1, HPK1 kinase (Homo sapiens, UniProt Q92918); assay: HPK1 kinase assay (Km concentration ATP); format: biochemical; settings: for IC50: ATP at Km concentration (working concentration: 9 µM); for inhibitory activity against HPK1 kinase (in words): Km concentration ATP, conclusion
T1 construct: purchased Carna 07-410
T1 sequence (Q92918 1-346 limits assumed): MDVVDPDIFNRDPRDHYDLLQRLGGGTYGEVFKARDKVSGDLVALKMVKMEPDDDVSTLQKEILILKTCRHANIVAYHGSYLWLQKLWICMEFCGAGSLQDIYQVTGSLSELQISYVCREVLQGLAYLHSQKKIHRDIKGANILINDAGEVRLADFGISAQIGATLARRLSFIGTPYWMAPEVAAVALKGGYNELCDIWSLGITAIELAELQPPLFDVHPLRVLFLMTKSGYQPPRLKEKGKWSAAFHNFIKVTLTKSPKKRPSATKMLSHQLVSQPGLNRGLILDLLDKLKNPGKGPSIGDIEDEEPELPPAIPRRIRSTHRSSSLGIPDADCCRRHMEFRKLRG
Method: Test example 3: HPK1 kinase assay (Km concentration ATP)
The kinase HPK1 (Carna, Cat.No 07-410) was prepared into 2× kinase solution using 1× kinase buffer. The substrate Fluorescein-PKC (Invitrogen, Cat. No. PV3506) and ATP (working concentration: 9 µM) (Sigma, Cat. No. 2383-5G) were prepared into 2× substrate solution using 1×kinase buffer. The detection reagent was diluted to 2-fold the final concentration using an antibody diluent. 100 nL of compounds at different concentrations and 5 µL of kinase solution were added to each well of a 384-well plate, and the mixture was incubated at room temperature for 10 minutes. After the incubation was completed, 5 µL of substrate solution was added to each well, and the resulting mixture was reacted at room temperature for 90 minutes. After the reaction was completed, 10 µL of detection reagent was added to each well to terminate the reaction, and the mixture was incubated at room temperature for 60 minutes. Fluorescence readings were detected using an Envision instrument with excitation at 320 nm and emission at 520 nm and 495 nm. IC50 value was calculated using XLFit excel add-in version 5.4.0.8 software. The calculation formula of the inhibition rate was shown in formula 3-1, where max is the Ratio of the DMSO control, min is the Ratio of the negative control without enzyme, and sample is the Ratio of the compound. Ratio = RFU520nm /RFU495nm [formula] Inhibition% = (max−sample)/(max−min) × 100% [formula] Table 3-1 Inhibitory activity of test compounds against HPK1 kinase

[2] = target: T2, HPK1 protein (Homo sapiens, UniProt Q92918); assay: Detection of HPK1 protein expression level in Jurkat cells (24 h); format: cell-based; settings: 24 hours incubation
T2 construct: host or cells: Jurkat cells
T2 sequence (Q92918 whole entry): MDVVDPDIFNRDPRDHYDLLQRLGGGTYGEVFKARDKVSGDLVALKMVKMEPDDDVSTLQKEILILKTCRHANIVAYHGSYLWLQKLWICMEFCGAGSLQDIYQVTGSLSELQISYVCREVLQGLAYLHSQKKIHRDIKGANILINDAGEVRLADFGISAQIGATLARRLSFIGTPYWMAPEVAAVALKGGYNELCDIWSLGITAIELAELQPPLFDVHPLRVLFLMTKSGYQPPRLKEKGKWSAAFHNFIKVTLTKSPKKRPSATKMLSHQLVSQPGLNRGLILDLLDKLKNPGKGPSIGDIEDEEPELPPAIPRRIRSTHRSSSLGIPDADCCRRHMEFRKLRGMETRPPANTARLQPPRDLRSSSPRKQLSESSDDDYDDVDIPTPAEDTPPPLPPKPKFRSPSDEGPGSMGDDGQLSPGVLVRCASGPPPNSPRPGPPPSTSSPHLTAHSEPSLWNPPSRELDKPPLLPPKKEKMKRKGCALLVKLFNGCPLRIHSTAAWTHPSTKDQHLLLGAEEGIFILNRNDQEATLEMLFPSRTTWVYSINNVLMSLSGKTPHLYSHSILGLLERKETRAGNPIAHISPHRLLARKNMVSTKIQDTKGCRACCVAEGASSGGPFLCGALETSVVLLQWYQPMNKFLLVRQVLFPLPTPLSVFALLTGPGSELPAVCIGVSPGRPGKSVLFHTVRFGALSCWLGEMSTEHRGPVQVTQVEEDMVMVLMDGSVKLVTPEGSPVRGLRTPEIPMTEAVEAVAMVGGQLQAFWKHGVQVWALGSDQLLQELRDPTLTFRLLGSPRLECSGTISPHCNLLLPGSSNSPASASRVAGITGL
In short: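 Jurkat cells at 5 × 10^5 cells/well were exposed to compounds for 24 h at 37 °C, with vehicle medium containing 0.2% DMSO as control. HPK1 in lysates (0.2 mg/mL) was measured by automated quantitative immunoassay and normalized to β-actin. Degradation was expressed relative to vehicle, and DC50 came from four-parameter fits.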

[3] = Pharmacokinetic test in mice; format: in vivo, ICR mice; settings: mouse, plasma, po, i. g., 10 mg/kg
In short: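 Male ICR mice (20-35 g), fasted overnight and fed 4 h post-dose, received a single intravenous or intragastric dose. Orbital blood into EDTA-K2 tubes at 0–24 h; plasma quantified by LC-MS/MS to derive PK parameters and bioavailability.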

[4] = Pharmacokinetic test in rats; format: in vivo, SD rats; settings: rat, plasma
Method: Test example 7: Pharmacokinetic test in rats
Experimental animals: Male SD rats, 180-200 g, purchased from Chengdu Dossy Experimental Animals Co., Ltd. with the laboratory animal production license number of SCXK (CHUAN) 2020-030.
Experimental design: on the day of the experiment, the SD rats were randomly grouped according to their body weights. The animals were fasted but with water available overnight before the administration, and fed 4 h after the administration.
Vehicle for intragastric administration: 5% Solutol+5% TPGS+30% PEG400+60% (20% SBE-β-CD)
Blood was taken from the orbits of the […] at specified time points, and placed in an EDTAK2 centrifuge tube. Centrifugation was performed at 5000 rpm for 10 min, and the plasma was collected.
Blood sampling time points for the intravenous administration group were: 0, 5 min, 15 min, 30 min, 1 h, 2 h, 4 h, 6 h, 8 h and 24 h; blood sampling time points for the intragastric administration group were: 0, 5 min, 15 min, 30 min, 1 h, 2 h, 4 h, 6 h, 8 h and 24 h. Before analysis and detection, all the samples were stored at - 60°C or lower. The samples were analysed quantitatively by LC-MS/MS. Table 7-1 PK data of test compound drug in rats

[5] = test system: IL-2 secretion by T cells; assay: IL-2 detection assay in cells (ELISA, pan-T cells isolated from PBMCs); format: cell-based; settings: IL-2, CD3 antibody-coated plate, 24 hours
Method: 9. IL-2 detection assay in cells
Activating effect of compounds on IL-2 secretion by T cells was evaluated using the ELISA method. Frozen PBMCs were thawed, and pan-T cells were isolated and purified using a T cell sorting kit (Stemcell, 17951). The cells were resuspended in 1640 complete medium and incubated in a 37°C&5%CO2 incubator overnight. A 96-well plate coated with an anti-human CD3 antibody (Thermo, 16-0037-38) at a final concentration of 5 µg/mL was incubated at 37°C for 2 h. The overnight-cultured cells were collected by centrifugation, the supernatant was discarded, and the cells were resuspended in 1640 complete medium, and seeded in the CD3 antibody-coated 96-well plate at a density of 10^5cells/well. The compounds at different concentrations were added, and the mixture was incubated in a 37°C&5%CO2 incubator for 24 hours. After the incubation was completed, the resulting mixture was centrifuged at 1000 rpm for 1 minute to collect the supernatant, and IL-2 was detected according to the ELISA instructions. DMSO without compounds was used as the control group to calculate the activation rate of the compounds, and prism was used to fit the activation curve. Maximum activation fold = maximum activation rate/control group. Table 9-1 Results of IL-2 activation by test compounds

Row | SMILES | IC50 [1] | inhibitory activity against HPK1 kinase (in words) [1] | DC50 [2] | AUC [3] | Cmax [3] | half-life [3] | clearance ([4]; IV, 2.5 mg/kg) | half-life ([4]; IV, 2.5 mg/kg) | AUC ([4]; po, i. g., 10 mg/kg) | Cmax ([4]; po, i. g., 10 mg/kg) | half-life ([4]; po, i. g., 10 mg/kg) | Activation fold at 100 nM concentration ([5]; 100 nM) | Maximum activation fold ([5]; maximum activation rate/control group)
1 | O=C1CCN(c2cc3c(cc2F)N2CCN(CC4CCN(c5ccc(Nc6ccc(-c7cnc8cc(F)ccn78)c7c6C(=O)NC7)nc5)CC4)C[C@@H]2CC3)C(=O)N1 [Compound 5] | < 10 nM | good inhibitory activity | < 20 nM | 20000 ng·h/mL | 1380 ng/mL | 6.45 h | – | – | – | – | – | – | –
2 | O=C1CCN(c2ccc(N3CCN(CC4CCN(c5ccc(Nc6ccc(-c7cnc8cc(F)ccn78)c7c6C(=O)NC7)nc5)CC4)CC3)cc2F)C(=O)N1 [Trifluoroacetic acid salt of compound 2] | < 10 nM | good inhibitory activity | < 20 nM | 16800 ng·h/mL | 1280 ng/mL | 5.79 h | – | – | – | – | – | – | –
3 | O=C1CCC(c2cc3c(cc2F)N2CCN(CC4CCN(c5ccc(Nc6ccc(-c7cnc8cc(F)ccn78)c7c6C(=O)NC7)nc5)CC4)C[C@@H]2CC3)C(=O)N1 (stereo partly shown) [Trifluoroacetic acid salt of compound 4] | < 10 nM | good inhibitory activity | < 20 nM | 15200 ng·h/mL | 1140 ng/mL | 7.27 h | – | – | – | – | – | – | –
4 | O=C1CCN(c2cc3c(cc2F)N2CCN(CC4CCN(c5ccc(Nc6ccc(-c7cnc8cc(F)ccn78)c7c6C(=O)NC7)nc5)CC4)C[C@H]2CC3)C(=O)N1 [Trifluoroacetic acid salt of compound 6] | < 10 nM | good inhibitory activity | < 20 nM | 20800 ng·h/mL | 1520 ng/mL | 5.35 h | 9.78 mL/min/kg | 6.58 h | 8360 ng·h/mL | 721 ng/mL | 6.4 h | >10 | >10
